# Values quoted from earlier work in patent publication US8957276B2 (priority 2009, dated 2015).
# Tested on: Rat
# Details: in vivo, po
row,Structure (SMILES),Acute toxicity (LD50)
1,[CH3][Hg][CH3] [(CH3)2Hg],26 mg/kg
2,[Cl][Hg] [HgCl],210 mg/kg
3,"[Cl][Hg][Cl] [HgCl2, mercury chloride (II)]",1 mg/kg
4,"[O]=[Hg] [HgO, mercury oxide]",18 mg/kg
5,[Cl][Hg].[Cl][Hg] [Hg2Cl2],210 mg/kg

# Tested on: Human
# Details: in vivo, po
row,Structure (SMILES),Acute toxicity (LD50)
1,"[Hg] [Hg, metallic mercury]",43 mg/kg
